{"source": "patent US20130018062A1", "about": "“Pain therapy with metabolism blocked antifolates” (priority 2011, published 2013)", "key": {"[1]": {"test_system": "patients with Rheumatoid Arthritis", "test": "Morning stiffness and swollen joints in patients with Rheumatoid Arthritis treated with M-Trex (Example-6)", "format": "in vivo, human", "from_the_text": "MS (Morning Stiffness); S. Joints (Swollen Joints) were remarkably responsive to M-Trex therapy. Stiffness exacerbates Pain especially in joints by virtue of inflexibility and reduction is blood circulation. Swelling of joints is secondary to inflammation caused by autoimmune response in patients with Rheumatoid Arthritis. […] The initial numbers represents the values at the start of the study before the treatment and the remaining four numbers are values determined during each visit while taking M-Trex medication.\nIn joints stiffness (duration measured in minutes as above) is caused by inflammation of the synovium that lines the joint. Inflammation due to bone spurs as in Oesteo-arthritis causes Pain. Thus reduction of stiffness reduces the severity of inflammation and Pain. Abnormal tissue growth characterized by benign and malignant neoplasms cause stiffness due to compression of tissues, interfering with blood flow and irritation of the autonomic nervous system. Metabolism blocked antifolates are shown to be capable of decompression of tissues by interfering with tissue growth as shown in Examples 4, 5 and 6. These examples establish that metabolism blocked antifolates can decompress cancer tissues and ameliorate cancer pain."}, "A549/ATCC (NSCLC)": {"test_system": "A549/ATCC (NSCLC)", "test": "Growth inhibition of human tumor cells in culture (NCI)", "format": "cell-based", "from_the_text": "(§1) The preceding data collected at the National Cancer Institute summarize the ability of M-Trex to inhibit 50% of the growth of selected tumor cells in culture. The values are expressed as Log10 GI50 values all of which are lower than 10^−8M. In the same table a comparison is made of the respective values of TGI (Total Growth Inhibition) for M-Trex and MTX. […] In addition, the Log10 GI50 values of M-Trex was lower than −8.00 for the following cell lines: NSCLC, A549/ATCC and NCI H23; Colon Cancer, HCT 116, HCT 29 and SW 620; CNS Cancer, SF 268; Melanoma M 14 and UACC 62; Ovarian Cancer, OVCAR-8; Renal Cancer, ACHN, CAKI-1, SN 12C, and UO 31; Prostate Cancer, PC 3 and Breast cancer, MDA-MB-435 and MDA-N. The MG_MID value of MTX for all 49 human tumor cell lines evaluated at NCI-DTP program was −7.05. […] The tumors and sarcomas are solid while leukemia and lymphoma are liquid tumors."}, "ACHN (Renal Cancer)": {"test_system": "ACHN (Renal Cancer)", "test": "Growth inhibition of human tumor cells in culture (NCI)", "format": "cell-based", "from_the_text": "as §1"}, "CAKI-1 (Renal Cancer)": {"test_system": "CAKI-1 (Renal Cancer)", "test": "Growth inhibition of human tumor cells in culture (NCI)", "format": "cell-based", "from_the_text": "as §1"}, "CCRF-CEM (Leukemia)": {"test_system": "CCRF-CEM (Leukemia)", "test": "Growth inhibition of human tumor cells in culture (NCI)", "format": "cell-based", "from_the_text": "as §1"}, "HCT 116 (Colon Cancer)": {"test_system": "HCT 116 (Colon Cancer)", "test": "Growth inhibition of human tumor cells in culture (NCI)", "format": "cell-based", "from_the_text": "as §1"}, "HCT 29 (Colon Cancer)": {"test_system": "HCT 29 (Colon Cancer)", "test": "Growth inhibition of human tumor cells in culture (NCI)", "format": "cell-based", "from_the_text": "as §1"}, "K562 (Leukemia)": {"test_system": "K562 (Leukemia)", "test": "Growth inhibition of human tumor cells in culture (NCI)", "format": "cell-based", "details": "logarithmic value", "from_the_text": "as §1"}, "M 14 (Melanoma)": {"test_system": "M 14 (Melanoma)", "test": "Growth inhibition of human tumor cells in culture (NCI)", "format": "cell-based", "from_the_text": "as §1"}, "MCF-7 (Breast Cancer)": {"test_system": "MCF-7 (Breast Cancer)", "test": "Growth inhibition of human tumor cells in culture (NCI)", "format": "cell-based", "details": "logarithmic value", "from_the_text": "as §1"}, "[2]": {"test_system": "MCF7-ADR-RES (Breast Cancer)", "test": "Growth inhibition of human tumor cells in culture (NCI)", "format": "cell-based", "from_the_text": "as §1"}, "[3]": {"test_system": "MDA-MB-435 (Breast cancer)", "test": "Growth inhibition of human tumor cells in culture (NCI)", "format": "cell-based", "from_the_text": "as §1"}, "MDA-N (Breast cancer)": {"test_system": "MDA-N (Breast cancer)", "test": "Growth inhibition of human tumor cells in culture (NCI)", "format": "cell-based", "from_the_text": "as §1"}, "MOLT-4 (Leukemia)": {"test_system": "MOLT-4 (Leukemia)", "test": "Growth inhibition of human tumor cells in culture (NCI)", "format": "cell-based", "details": "logarithmic value", "from_the_text": "as §1"}, "NCI H23 (NSCLC)": {"test_system": "NCI H23 (NSCLC)", "test": "Growth inhibition of human tumor cells in culture (NCI)", "format": "cell-based", "from_the_text": "as §1"}, "OVCAR-8 (Ovarian Cancer)": {"test_system": "OVCAR-8 (Ovarian Cancer)", "test": "Growth inhibition of human tumor cells in culture (NCI)", "format": "cell-based", "from_the_text": "as §1"}, "PC 3 (Prostate Cancer)": {"test_system": "PC 3 (Prostate Cancer)", "test": "Growth inhibition of human tumor cells in culture (NCI)", "format": "cell-based", "from_the_text": "as §1"}, "RPMI 8226 (Leukemia)": {"test_system": "RPMI 8226 (Leukemia)", "test": "Growth inhibition of human tumor cells in culture (NCI)", "format": "cell-based", "details": "logarithmic value", "from_the_text": "as §1"}, "SF 268 (CNS Cancer)": {"test_system": "SF 268 (CNS Cancer)", "test": "Growth inhibition of human tumor cells in culture (NCI)", "format": "cell-based", "from_the_text": "as §1"}, "SF 539 (CNS Cancer)": {"test_system": "SF 539 (CNS Cancer)", "test": "Growth inhibition of human tumor cells in culture (NCI)", "format": "cell-based", "details": "logarithmic value", "from_the_text": "as §1"}, "SN 12C (Renal Cancer)": {"test_system": "SN 12C (Renal Cancer)", "test": "Growth inhibition of human tumor cells in culture (NCI)", "format": "cell-based", "from_the_text": "as §1"}, "SR (Leukemia)": {"test_system": "SR (Leukemia)", "test": "Growth inhibition of human tumor cells in culture (NCI)", "format": "cell-based", "details": "logarithmic value", "from_the_text": "as §1"}, "SW 620 (Colon Cancer)": {"test_system": "SW 620 (Colon Cancer)", "test": "Growth inhibition of human tumor cells in culture (NCI)", "format": "cell-based", "from_the_text": "as §1"}, "UACC 62 (Melanoma)": {"test_system": "UACC 62 (Melanoma)", "test": "Growth inhibition of human tumor cells in culture (NCI)", "format": "cell-based", "from_the_text": "as §1"}, "UO 31 (Renal Cancer)": {"test_system": "UO 31 (Renal Cancer)", "test": "Growth inhibition of human tumor cells in culture (NCI)", "format": "cell-based", "from_the_text": "as §1"}, "C-Reactive Protein (CRP)": {"test_system": "C-Reactive Protein (CRP)", "parameters": "unit not given here", "details": "RA patients on therapy with M-Trex, cited from earlier work"}, "Allergic Rabbits": {"test_system": "Allergic Rabbits", "details": "allergen induced; cited from earlier work"}, "[4]": {"details": "first visit while taking M-Trex"}, "[5]": {"details": "fourth visit while taking M-Trex"}, "[6]": {"details": "second visit while taking M-Trex"}, "[7]": {"details": "start of the study before the treatment"}, "[8]": {"details": "third visit while taking M-Trex"}}, "note": "Like-named read-outs stand apart in the source and are kept apart here."}
{"smiles": "C=C(CC(NC(=O)c1ccc(CCc2ccc3nc(N)nc(N)c3c2)cc1)C(=O)O)C(=O)O", "note": "(stereo not shown) [M-Trex, 4′-methylene-5,8-10-trideazaaminopterin]", "values": [{"measurement": "MS (Morning Stiffness), duration", "setting": "[1]; [4]", "result": "26′ minutes"}, {"measurement": "S. Joints (number of Swollen Joints)", "setting": "[1]; [4]", "result": 5.6}, {"measurement": "MS (Morning Stiffness), duration", "setting": "[1]; [5]", "result": "14′ minutes"}, {"measurement": "S. Joints (number of Swollen Joints)", "setting": "[1]; [5]", "result": 2.9}, {"measurement": "MS (Morning Stiffness), duration", "setting": "[1]; [6]", "result": "22′ minutes"}, {"measurement": "S. Joints (number of Swollen Joints)", "setting": "[1]; [6]", "result": 3.5}, {"measurement": "MS (Morning Stiffness), duration", "setting": "[1]; [7]", "result": "99′ minutes"}, {"measurement": "S. Joints (number of Swollen Joints)", "setting": "[1]; [7]", "result": 12.5}, {"measurement": "MS (Morning Stiffness), duration", "setting": "[1]; [8]", "result": "20′ minutes"}, {"measurement": "S. Joints (number of Swollen Joints)", "setting": "[1]; [8]", "result": 3.0}, {"measurement": "Log10 GI50", "setting": "A549/ATCC (NSCLC)", "result": "lower than −8.00"}, {"measurement": "Log10 GI50", "setting": "ACHN (Renal Cancer)", "result": "lower than −8.00"}, {"measurement": "Log10 GI50", "setting": "CAKI-1 (Renal Cancer)", "result": "lower than −8.00"}, {"measurement": "TGI (Total Growth Inhibition)", "setting": "CCRF-CEM (Leukemia); logarithmic value", "result": "<−8.00"}, {"measurement": "Log10 GI50", "setting": "CCRF-CEM (Leukemia); value is Log10 of GI50", "result": "<−8.00", "unit": "M"}, {"measurement": "Log10 GI50", "setting": "HCT 116 (Colon Cancer)", "result": "lower than −8.00"}, {"measurement": "Log10 GI50", "setting": "HCT 29 (Colon Cancer)", "result": "lower than −8.00"}, {"measurement": "TGI (Total Growth Inhibition)", "setting": "K562 (Leukemia)", "result": "<−8.00"}, {"measurement": "Log10 GI50", "setting": "M 14 (Melanoma)", "result": "lower than −8.00"}, {"measurement": "TGI (Total Growth Inhibition)", "setting": "MCF-7 (Breast Cancer)", "result": "−6.32"}, {"measurement": "TGI (Total Growth Inhibition)", "setting": "[2]; logarithmic value", "result": "−7.26"}, {"measurement": "Log10 GI50", "setting": "[2]; value is Log10 of GI50", "result": "<−8.00", "unit": "M"}, {"measurement": "Log10 GI50", "setting": "[3]", "result": "lower than −8.00"}, {"measurement": "Log10 GI50", "setting": "MDA-N (Breast cancer)", "result": "lower than −8.00"}, {"measurement": "TGI (Total Growth Inhibition)", "setting": "MOLT-4 (Leukemia)", "result": "−7.40"}, {"measurement": "Log10 GI50", "setting": "NCI H23 (NSCLC)", "result": "lower than −8.00"}, {"measurement": "Log10 GI50", "setting": "OVCAR-8 (Ovarian Cancer)", "result": "lower than −8.00"}, {"measurement": "Log10 GI50", "setting": "PC 3 (Prostate Cancer)", "result": "lower than −8.00"}, {"measurement": "TGI (Total Growth Inhibition)", "setting": "RPMI 8226 (Leukemia)", "result": "−7.44"}, {"measurement": "Log10 GI50", "setting": "SF 268 (CNS Cancer)", "result": "lower than −8.00"}, {"measurement": "TGI (Total Growth Inhibition)", "setting": "SF 539 (CNS Cancer)", "result": "−6.3"}, {"measurement": "Log10 GI50", "setting": "SN 12C (Renal Cancer)", "result": "lower than −8.00"}, {"measurement": "TGI (Total Growth Inhibition)", "setting": "SR (Leukemia)", "result": "<−8.00"}, {"measurement": "Log10 GI50", "setting": "SW 620 (Colon Cancer)", "result": "lower than −8.00"}, {"measurement": "Log10 GI50", "setting": "UACC 62 (Melanoma)", "result": "lower than −8.00"}, {"measurement": "Log10 GI50", "setting": "UO 31 (Renal Cancer)", "result": "lower than −8.00"}, {"measurement": "Plasma CRP Levels", "setting": "C-Reactive Protein (CRP); visit at 4 weeks", "result": 22.1}, {"measurement": "Plasma CRP Levels", "setting": "C-Reactive Protein (CRP); visit at 8 weeks", "result": 20.7}, {"measurement": "Plasma CRP Levels", "setting": "C-Reactive Protein (CRP); visit at 12 weeks", "result": 17.7}, {"measurement": "Plasma CRP Levels", "setting": "C-Reactive Protein (CRP); visit at 16 weeks", "result": 13.6}, {"measurement": "Asthmatic Response Early", "setting": "Allergic Rabbits", "result": 52}, {"measurement": "Asthmatic Response Late", "setting": "Allergic Rabbits", "result": 58}, {"measurement": "BHR (Bronchial Hyper-Responsiveness)", "setting": "Allergic Rabbits", "result": 47}]}
